Assay results: ChEMBL document CHEMBL1201862, “PubChem BioAssay data set” (2004)
The source made the active and inactive calls.

What was measured:
[1] = inhibitors of intracellular T. cruzi replication, confirmation, NIH3T3 host cells, beta-gal luminescence (AID 2044); format: functional, cell-based;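 also: intracellular parasites grown in NIH/3T3 mouse fibroblasts as host cells; luminescent beta-galactosidase reporter signal from transgenic T. cruzi replicating inside host cells; inhibitors lower the luminescence signal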
[2] = cytotoxicity toward NIH3T3 fibroblasts, dose response, counter-screen, cell-based, ATP luminescence, mouse fibroblasts (AID 2010); format: functional;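 also: cells exposed to compound for about 90 hours before reading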
INS1 = assay: beta cell apoptosis inhibitors, cytokine rescue, dose response, luminescence, retest (AID 449756); format: functional, cell-based; conditions: Rattus norvegicus;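 also: cell death triggered by IL-1 beta plus TNF-alpha plus IFN-gamma mixture; protective hits raise ATP signal compared with cytokine alone wells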
Beta-galactosidase = Beta-galactosidase (Escherichia coli, UniProt Q8VNN2); assay: PubChem AID 485352; format: functional
[3] = target: T1, Type-1 angiotensin II receptor (Homo sapiens, UniProt P30556); assay: AT1 receptor antagonists, dose response, selectivity assay for APJ receptor antagonist project, cell-based, uHTS hits (AID 463214); format: functional;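 also: antagonist potency against angiotensin II stimulated AT1 response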
T1 sequence (P30556 whole entry): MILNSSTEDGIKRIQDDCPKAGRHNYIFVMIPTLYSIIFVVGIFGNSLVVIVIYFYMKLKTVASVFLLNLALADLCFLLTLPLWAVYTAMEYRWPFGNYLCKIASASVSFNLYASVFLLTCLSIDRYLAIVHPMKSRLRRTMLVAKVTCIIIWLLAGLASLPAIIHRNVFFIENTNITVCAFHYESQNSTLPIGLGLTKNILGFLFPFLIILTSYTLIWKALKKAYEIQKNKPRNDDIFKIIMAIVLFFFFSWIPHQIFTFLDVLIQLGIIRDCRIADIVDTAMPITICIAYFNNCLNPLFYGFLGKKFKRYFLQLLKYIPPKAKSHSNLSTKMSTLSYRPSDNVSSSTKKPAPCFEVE

[4] = target: T2, Adenosylmethionine-8-amino-7-oxononanoate aminotransferase (Mycobacterium tuberculosis, UniProt P9WQ81); assay: Mycobacterium tuberculosis BioA enzyme inhibitor Measured in Biochemical System Using Plate Reader - 2163-02_Inhibitor_Dose_CherryPick_Activity.; format: functional, Mycobacterium tuberculosis UT205
T2 sequence (P9WQ81 whole entry): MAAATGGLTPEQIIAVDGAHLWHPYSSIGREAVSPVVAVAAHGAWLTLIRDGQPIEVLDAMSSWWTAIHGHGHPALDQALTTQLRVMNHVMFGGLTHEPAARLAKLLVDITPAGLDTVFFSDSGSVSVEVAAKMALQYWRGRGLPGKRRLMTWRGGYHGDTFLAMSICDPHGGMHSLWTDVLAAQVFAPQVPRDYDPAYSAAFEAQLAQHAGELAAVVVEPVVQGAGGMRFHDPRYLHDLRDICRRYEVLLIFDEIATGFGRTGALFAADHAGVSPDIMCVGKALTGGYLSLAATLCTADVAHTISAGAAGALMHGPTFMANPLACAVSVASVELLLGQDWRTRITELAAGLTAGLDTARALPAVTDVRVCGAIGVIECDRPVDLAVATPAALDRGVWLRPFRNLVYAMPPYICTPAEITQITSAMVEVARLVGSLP

[5] = THP-1 cell cytotoxicity, dose response, cytotoxicity control for Vif-APOBEC3G degradation inhibitor project, THP-1 cells (AID 1117359); format: functional; conditions: Human immunodeficiency virus 1, THP-1
[6] = test system: Streptococcus sp. 'group A'; assay: growth inhibition of control SK(-) GAS strain, dose response, counter-screen for streptokinase expression inhibitor project, luminescence, kanamycin, BacTiterGlo, confirmation (AID 1900); format: functional, organism-based
Streptokinase A = target: T3, Streptokinase A (Streptococcus pyogenes serotype M1, UniProt P10520); assay: S. pyogenes streptokinase expression inhibitors, potency, dose response, plasminogen activation absorbance, OD405 (AID 1914); format: functional, Streptococcus pyogenes M1 GAS;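 also: secreted streptokinase activity via plasminogen activation per viability signal from cell pellet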
T3 sequence (P10520 whole entry): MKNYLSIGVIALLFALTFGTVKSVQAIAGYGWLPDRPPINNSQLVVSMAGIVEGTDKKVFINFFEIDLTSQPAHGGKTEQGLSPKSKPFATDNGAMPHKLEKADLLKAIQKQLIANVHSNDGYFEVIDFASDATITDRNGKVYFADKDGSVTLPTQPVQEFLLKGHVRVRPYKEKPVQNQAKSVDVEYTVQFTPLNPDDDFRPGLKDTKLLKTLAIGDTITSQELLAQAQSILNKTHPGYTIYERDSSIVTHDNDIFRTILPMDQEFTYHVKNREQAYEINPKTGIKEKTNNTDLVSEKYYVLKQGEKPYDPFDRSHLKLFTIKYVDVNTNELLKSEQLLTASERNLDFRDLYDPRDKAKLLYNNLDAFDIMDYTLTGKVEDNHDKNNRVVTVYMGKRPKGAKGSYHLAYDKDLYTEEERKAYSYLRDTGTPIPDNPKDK

Streptococcus = assay: Group A Streptococcus viability loss, dose response, counter-screen for streptokinase expression inhibitor project, luminescence, BacTiterGlo (AID 1915); format: functional, organism-based;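 also: potency for reduction of bacterial viability or growth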
Caspase-3 [7] = target: T4, Caspase-3 (Homo sapiens, UniProt P42574); format: functional
T4 sequence (P42574 whole entry): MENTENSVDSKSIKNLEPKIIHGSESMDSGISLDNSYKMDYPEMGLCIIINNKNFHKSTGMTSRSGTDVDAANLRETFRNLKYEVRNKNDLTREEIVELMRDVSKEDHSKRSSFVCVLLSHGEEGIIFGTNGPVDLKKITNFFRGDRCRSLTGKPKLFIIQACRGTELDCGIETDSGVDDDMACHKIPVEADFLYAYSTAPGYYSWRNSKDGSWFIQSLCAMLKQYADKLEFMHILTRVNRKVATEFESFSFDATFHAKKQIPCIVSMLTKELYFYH

[8] = target: T5, Sentrin-specific protease 7 (Homo sapiens, UniProt Q9BQF6); format: functional;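 also: Luminescence-based dose-response confirmation of ultra-high-throughput screening hits, measuring inhibition of SENP7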
T5 sequence (Q9BQF6 whole entry): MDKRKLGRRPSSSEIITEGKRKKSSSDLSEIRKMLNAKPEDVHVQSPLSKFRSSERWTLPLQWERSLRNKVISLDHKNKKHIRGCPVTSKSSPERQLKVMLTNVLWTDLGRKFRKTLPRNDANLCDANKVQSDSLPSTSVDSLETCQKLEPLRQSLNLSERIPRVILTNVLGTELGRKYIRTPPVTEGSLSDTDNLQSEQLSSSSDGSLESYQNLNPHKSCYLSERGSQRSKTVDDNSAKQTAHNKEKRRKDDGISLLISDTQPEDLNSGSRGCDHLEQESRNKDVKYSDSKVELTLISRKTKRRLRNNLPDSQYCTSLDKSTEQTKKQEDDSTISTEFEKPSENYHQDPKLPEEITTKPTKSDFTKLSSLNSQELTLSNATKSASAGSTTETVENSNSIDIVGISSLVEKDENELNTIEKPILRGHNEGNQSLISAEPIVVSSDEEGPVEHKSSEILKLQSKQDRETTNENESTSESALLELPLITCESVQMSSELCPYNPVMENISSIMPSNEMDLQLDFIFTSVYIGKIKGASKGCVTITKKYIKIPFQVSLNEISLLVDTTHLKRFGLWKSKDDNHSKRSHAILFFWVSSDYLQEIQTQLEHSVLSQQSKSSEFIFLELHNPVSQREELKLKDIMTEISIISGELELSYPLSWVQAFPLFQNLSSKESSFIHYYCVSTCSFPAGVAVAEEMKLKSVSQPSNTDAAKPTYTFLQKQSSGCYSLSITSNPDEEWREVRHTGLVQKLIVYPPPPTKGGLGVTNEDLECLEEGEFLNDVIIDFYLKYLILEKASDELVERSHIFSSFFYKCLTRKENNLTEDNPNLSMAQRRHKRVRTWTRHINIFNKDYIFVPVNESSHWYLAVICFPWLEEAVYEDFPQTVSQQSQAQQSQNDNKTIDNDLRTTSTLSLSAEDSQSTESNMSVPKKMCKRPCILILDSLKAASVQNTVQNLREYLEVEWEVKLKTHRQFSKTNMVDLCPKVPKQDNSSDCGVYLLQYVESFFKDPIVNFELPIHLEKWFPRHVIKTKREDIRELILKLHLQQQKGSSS

[9] = target: T6, Sentrin-specific protease 6 (Homo sapiens, UniProt Q9GZR1); format: functional
T6 sequence (Q9GZR1 whole entry): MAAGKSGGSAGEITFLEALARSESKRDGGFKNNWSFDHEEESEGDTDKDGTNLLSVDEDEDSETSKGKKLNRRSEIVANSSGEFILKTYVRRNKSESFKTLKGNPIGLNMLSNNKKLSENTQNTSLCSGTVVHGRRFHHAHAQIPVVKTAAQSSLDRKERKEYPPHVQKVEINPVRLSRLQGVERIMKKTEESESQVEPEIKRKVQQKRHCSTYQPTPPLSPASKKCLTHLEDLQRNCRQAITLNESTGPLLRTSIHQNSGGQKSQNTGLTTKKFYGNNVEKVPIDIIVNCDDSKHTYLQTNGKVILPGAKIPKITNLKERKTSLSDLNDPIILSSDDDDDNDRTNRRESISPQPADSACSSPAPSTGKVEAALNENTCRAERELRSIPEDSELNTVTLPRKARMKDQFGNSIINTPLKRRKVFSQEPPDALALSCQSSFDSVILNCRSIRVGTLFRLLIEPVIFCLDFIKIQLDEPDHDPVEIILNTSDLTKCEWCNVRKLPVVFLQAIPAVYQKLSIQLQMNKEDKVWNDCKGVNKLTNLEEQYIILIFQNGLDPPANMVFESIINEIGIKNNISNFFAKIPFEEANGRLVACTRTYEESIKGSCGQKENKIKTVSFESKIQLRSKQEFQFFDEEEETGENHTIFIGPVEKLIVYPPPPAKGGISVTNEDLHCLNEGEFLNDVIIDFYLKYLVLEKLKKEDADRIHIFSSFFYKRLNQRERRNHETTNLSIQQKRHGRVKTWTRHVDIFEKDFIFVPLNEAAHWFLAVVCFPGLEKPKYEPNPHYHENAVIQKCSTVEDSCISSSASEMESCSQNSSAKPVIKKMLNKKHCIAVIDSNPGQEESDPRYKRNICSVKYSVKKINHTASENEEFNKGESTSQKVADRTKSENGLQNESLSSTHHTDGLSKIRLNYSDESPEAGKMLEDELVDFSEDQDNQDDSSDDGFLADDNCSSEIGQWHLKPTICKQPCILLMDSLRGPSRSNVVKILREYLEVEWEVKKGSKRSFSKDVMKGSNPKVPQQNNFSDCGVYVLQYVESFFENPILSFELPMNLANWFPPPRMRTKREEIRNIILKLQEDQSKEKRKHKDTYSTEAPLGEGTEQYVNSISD

[10] = target: T7, Sentrin-specific protease 8 (Homo sapiens, UniProt Q96LD8); format: functional;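 also: luminescence read-out of SENP8 inhibition, dose-response confirmation following an ultra-high-throughput screen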
T7 sequence (Q96LD8 whole entry): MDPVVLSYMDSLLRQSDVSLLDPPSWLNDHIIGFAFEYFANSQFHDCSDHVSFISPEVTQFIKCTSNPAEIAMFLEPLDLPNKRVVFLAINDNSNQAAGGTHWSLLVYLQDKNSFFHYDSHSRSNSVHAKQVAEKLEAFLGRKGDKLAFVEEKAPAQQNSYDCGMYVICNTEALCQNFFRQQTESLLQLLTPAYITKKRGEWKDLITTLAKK

Caspase-3 [11] = target: T4, Caspase-3; assay: SAR Analysis of small molecule inhibitors of Sentrin-specific proteases (SENPs) using a Caspase-3 Selectivity assay. [Related pubchem assays (depositor defined):AID2540, AID2599, AID434973, AID489001]; format: functional
[12] = target: T6, Sentrin-specific protease 6; assay: SAR Analysis of small molecule inhibitors of Sentrin-specific protease 6 (SENP6) using a Luminescent assay. [Related pubchem assays (depositor defined):AID2582, AID2599]; format: functional
[13] = target: T5, Sentrin-specific protease 7; assay: SENP7 protease inhibitors, SAR follow-up, biochemical, luminescence (AID 504497); format: functional

Beta-galactosidase, sequence (Q8VNN2 whole entry): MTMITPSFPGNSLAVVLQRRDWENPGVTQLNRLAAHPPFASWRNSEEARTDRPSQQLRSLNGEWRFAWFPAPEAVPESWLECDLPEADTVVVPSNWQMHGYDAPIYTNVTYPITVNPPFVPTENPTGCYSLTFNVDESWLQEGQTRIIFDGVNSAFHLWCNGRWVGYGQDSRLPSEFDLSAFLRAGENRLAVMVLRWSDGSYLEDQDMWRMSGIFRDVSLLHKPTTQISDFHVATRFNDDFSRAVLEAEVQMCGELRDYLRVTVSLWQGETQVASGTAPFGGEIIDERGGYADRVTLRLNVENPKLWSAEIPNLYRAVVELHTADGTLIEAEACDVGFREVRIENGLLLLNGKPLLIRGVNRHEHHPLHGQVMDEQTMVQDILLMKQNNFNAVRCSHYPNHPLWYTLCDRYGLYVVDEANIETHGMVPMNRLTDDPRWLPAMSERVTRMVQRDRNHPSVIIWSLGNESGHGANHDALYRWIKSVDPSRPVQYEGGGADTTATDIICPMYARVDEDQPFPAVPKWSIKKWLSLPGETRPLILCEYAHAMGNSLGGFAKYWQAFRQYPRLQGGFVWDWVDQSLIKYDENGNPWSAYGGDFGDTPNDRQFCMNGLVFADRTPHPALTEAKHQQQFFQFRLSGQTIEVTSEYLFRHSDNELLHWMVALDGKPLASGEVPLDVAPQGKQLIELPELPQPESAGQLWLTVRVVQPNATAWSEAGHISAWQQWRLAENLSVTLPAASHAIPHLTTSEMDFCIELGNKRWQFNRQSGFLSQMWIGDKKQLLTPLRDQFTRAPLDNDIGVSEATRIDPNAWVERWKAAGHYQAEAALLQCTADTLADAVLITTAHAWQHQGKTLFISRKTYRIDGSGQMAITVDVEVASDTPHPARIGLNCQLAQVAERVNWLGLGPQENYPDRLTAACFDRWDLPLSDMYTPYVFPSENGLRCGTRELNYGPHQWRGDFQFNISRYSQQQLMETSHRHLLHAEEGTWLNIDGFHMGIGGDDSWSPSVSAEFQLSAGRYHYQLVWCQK

Structure (SMILES) | EC50 [1] | EC50 [2] | EC50 (cells) | AC50 [4] | other results
COc1cc(OC)c(OC)cc1CNCCc1ccc(F)cc1 | < 100 nM (active) | > 60 µM (not active) | 55 nM (active) | – | –
CCOC(=O)c1ccc(-[n+]2c(-c3ccccc3)cc(-c3ccccc3)cc2-c2ccccc2)cc1.[O-][Cl+3]([O-])([O-])[O-] | < 100 nM (active) | > 60 µM (not active) | 47 nM (active) | – | AC50 (INS1): 2.02 µM (active)
CN(C)CCN(Cc1ccco1)C(=O)c1cc2c(Cl)nc3ccccc3c2s1 | < 100 nM (active) | 9.5 µM (active) | 115 nM (active) | – | EC50 (Beta-galactosidase): > 40 µM (inactive); IC50 [3]: 33.8 µM (not active)
COC(=O)C[C@@H]1CC[C@@H]2[C@H](COC[C@@H](O)CN2C(=O)Nc2cccc(F)c2)O1 | – | – | – | 10 µM (active) | –
CCOC(=O)c1ccc(N2C(=O)c3[nH]nc(C)c3C2c2ccc(OC)cc2OC)cc1 (stereo unspecified) | – | – | – | – | CC50 [5]: > 40 µM (active)
O=C(c1cccc(F)c1)N1CC[C@@H]2[C@H]1c1cc(-c3cccc(F)c3)ccc1N[C@@H]2CO | – | – | – | 5.94 µM (active) | –
CN(C)CCNc1ccc(-c2nn(C)c(=O)c3ccccc23)cc1[N+](=O)[O-] | < 100 nM (active) | > 60 µM (not active) | 62 nM (active) | – | –
COC(=O)c1c(C(=O)OC)c(-c2ccc(F)cc2)n2c1C[S+]([O-])C2 (stereo unspecified) | – | – | – | 10.3 µM (active) | –
NC(=O)c1ccc(Oc2cccc3cccnc23)c([N+](=O)[O-])c1 | – | – | – | 2.3 µM (active) | –
Cc1cccc(C(=O)Nc2scc(-c3ccc(Br)cc3)c2C(=O)O)c1 | – | – | – | – | EC50 [6]: 2.33 µM (active); EC50 (Streptokinase A): > 150 µM (not active); EC50 (Streptococcus): 8.14 µM (active); IC50 (Caspase-3 [7]): 5.21 µM (active); IC50 [8]: > 100 µM (inactive); IC50 [9]: 4.28 µM (active); IC50 [10]: 3.72 µM (active); IC50 (Caspase-3 [11]): 4.89 µM (active); IC50 [12]: 3.42 µM (active); IC50 [13]: 6.38 µM (active)
C[C@H](CO)N1C[C@H](C)[C@@H](CN(C)Cc2ccc3c(c2)OCO3)Oc2ccc(NC(=O)Cn3cnnn3)cc2CC1=O | – | – | – | 13 µM (active) | –
